Laboratory results: US11161824B2, “Heterocyclic lipoxin analogs and uses thereof” (University College Dublin, National University of Ireland, …, priority 2016, dated 2021)
Read-outs that look alike come from different tables or passages of the source. Each block holds one molecule with its values, some of them ahead of it.

Legend:
NFkB [1] = experiment: NFkB-driven luciferase activity in resting conditions (absence of LPS) in THP-1 LUCIA monocytes; assay type: cell-based; settings: 10^-12 M to 10^-6 M, 24 h
Description: 1×10^5 THP-1 LUCIA monocytes were treated for 30 min with native (a) LXA4 1, its stable imidazole-lipoxin analogues (1R)-9 and (1S)-9, vehicle or appropriate controls, at increasing doses ranging from 10^−12 M up to 10^−6 M. After 24 h, supernatants were collected and NFkB-driven luciferase was measured. Data are expressed as % Relative Luminescence Unit relative to LPS alone ±SEM (n=3).
(§1) The experiments were based around a model which utilised 1×10^5/ml THP-1 monocytes stably expressing NFkB luciferase reporter gene (LUCIA).
(§2) Anti-inflammatory activity was assessed by testing 10 analogues (6 quinoxalines & 4 isoquinolines) in presence & absence of lipopolysaccharide (LPS). For each analogue, a dose-response from 10^−12 M up to 10^−6 M was performed. The vehicle control corresponded to 0.1% Ethanol. NFkB activator, Heat-Killed Listeria Monocytogenes (HKLM) (10^7 cells/ml), were used as positive control for luciferase induction. 10^−6 M Dexamethasone (Dex) was used as positive control for luciferase inhibition. […] Benzo-lipoxin A4 (BLX) was used as positive control for LXA4 analogues.

[2] = system: zymosan-induced peritonitis; experiment: Murine zymosan-induced peritonitis; assay type: in vivo, C57BL6/J mice; settings: lavage 24 h
Description: As shown in FIG. 17 zymosan [1 mg per mouse in 200 μl H2O] induced a massive influx of leukocytes detected in lavage 24 h post-zymosan. […] Mean of total cell numbers=4.27×10^6/ml [basal]; 5.9×107 [vehicle pretreatment and zymosan]; 2.18×107 [LXA4 pretreatment and zymosan]. Pretreament with (R) and (S) epimers of 9 also attenuated cell influx: 2.5×10^7/ml [pretreatment with (1R)-9 and zymosan; p=0.0368, relative to zymosan alone]; 1.16×107 (1S)-9 [p=0.0048 relative to zymosan alone]. Importantly, (1R)-9 and (1S)-9 were administered at doses of 1.7 ng/g using the same regimen as LXA4. As anticipated the leukocyte influx was predominantly neutrophil [PMN]. PMN numbers were reduced to 35, 44 and 20% maximum response by LXA4, (1R)-9 and (1S)-9 epimers respectively.
Effect of LXA4 1 and imidazole-lipoxin analogues (1R)-9 and (1S)-9 on murine zymosan-induced peritonitis. Peritonitis was induced in groups of 5 male C57BL6/J mice by injection of zymosan (Sigma) i.p. (1 mg per mouse in 200 μl H2O). Mice were treated with LXA4 1; (5 ng/g); (1R)-9 (1.7 ng/g) or (1S)-9 (1.7 ng/g) (200 μl i.p.) 30 minutes prior to zymosan injection and again, 1 hour after zymosan injection. Treatments with LXA4 1, (1R)-9 and (1S)-9 are designated A, B and C respectively. Peritoneal cells were collected by lavage 24 hours after injection of zymosan. Cells were incubated with LIVE/DEAD Fixable Aqua stain (Molecular probes, Invitrogen) to isolate dead cells. Data shown are total cell counts/ml. Surface marker expression on peritoneal cells was assessed by flow cytometry with data collection on a CyAn (Beckman Coulter). Data were analyzed using FlowJo software (Tree Star). Cells were stained with BD Biosciences mAbs; Siglec-F-PE (E50-2440), F4/80-FITC (BM8), eBiosciences mAb; CD11b-PerCP (M1/70) and BioLegend mAbs; CD206-PECy7 (C068C2) and Ly6G-APCCy7 (1A8). Using appropriate isotype-controls, quadrants were drawn and data plotted on logarithmic scale density- or dot-plots to investigate the relative % of PMN, eoisiophils, M1 and M2 macrophgaes. […]

Th1 cytokine release = experiment: LPS-induced Th1 cytokine release from THP-1 LUCIA monocytes; assay type: cell-based; settings: 10^-11, 10^-9 or 10^-7 M; 50 ng/ml LPS 24 h; IL1β, IL6, IL12p70, IFNγ, TNF-α as per figure
Description: FIG. 2A-2E are graphs showing imidazole-lipoxin analogues (1R)-9 and (1S)-9 reduce LPS-induced Th1 cytokine release. 1×10^5 THP-1 LUCIA monocytes were pre-treated for 30 min with […], 10^−9 M or 10^−7 M of LXA4 1 and imidazole-lipoxin analogues (1R)-9 and (1S)-9, vehicle or appropriate controls. After 24 h from stimulation with 50 ng/ml of LPS, supernatants were collected and […] (FIG. 2A), IL6 (FIG. 2B), IL12p70 (FIG. 2C), IFNγ (FIG. 2D), and TNF-α (FIG. 2E) levels were measured. Data are expressed as % cytokine secretion relative to LPS alone ±SEM (n=3), *=p<0.05, **=p<0.01, ***=p<0.001.
FIG. 6A-6C are graphs showing that quinoxaline-lipoxin analogue (1R)-CT-4-43 inhibits LPS-induced Th1 cytokine release. 1×10^5 THP-1 LUCIA monocytes were pre-treated for 30 min with […], 10^−9 M or 10^−7 M of LXA4 and quinoxaline-lipoxin analogue (1R)-CT-4-43, vehicle or appropriate controls. After 24 h from stimulation with 50 ng/ml of LPS, supernatants were collected and IL13 (FIG. 6A), IL6 (FIG. 6B), and IFNγ (FIG. 6C) levels were measured. Data are expressed as % cytokine secretion relative to LPS alone ±SEM (n=3), *=p<0.05, **=p<0.01, ***=p<0.001.
FIG. 9A-9C are graphs showing that the isoquinoline-lipoxin analogue RB3 inhibit LPS-induced Th1 cytokine release. 1×10^5 THP-1 LUCIA monocytes were pre-treated for 30 min with 10^−11 M, 10^−9 M or 10^−7 M of LXA4 and isoquinoline-lipoxin analogue (1R)-RB3, vehicle or appropriate controls. After 24 h from stimulation with 50 ng/ml of LPS, supernatants were collected and IL1β(FIG. 9A), IL6 (FIG. 9B), and IL12p70 (FIG. 9C) levels were measured. Data are expressed as % cytokine secretion relative to LPS alone ±SEM (n=3), *=p<0.05, **=p<0.01, ***=p<0.001.

NFkB [3] = experiment: LPS-induced NFkB-driven luciferase activity in THP-1 LUCIA monocytes; assay type: cell-based; settings: for effect on LPS-induced NFkB-driven luciferase activity (in words): doses 10^-12 M to 10^-6 M, 50 ng/ml LPS, 24 h; for reduction of LPS-induced NFkB luciferase activity: 30 min pre-treatment, then 24 h with 50 ng/ml LPS, relative to LPS; for concentration at which maximal inhibition of LPS-induced NFkB activity is reached: dose-response 10^-12 M to 10^-6 M; for potency in reducing LPS-induced NFkB activity, comparison in words: versus LXA4 or other analogues
Description: 1×10^5 THP-1 LUCIA monocytes were pre-treated for 30 min with native LXA4 1 (FIG. 1A), imidazole analogues 9 [(1R)-epimer (FIG. 1B) and (1S)-epimer (FIG. 1C)], vehicle or appropriate controls, at increasing doses ranging from 10^−12 M up to 10^−6 M. 10^8 HKLM was used as positive control for NFkB activation. After 24 h from stimulation with 50 ng/ml of LPS, supernatants were collected and NFkB-driven luciferase was measured. (d) Data are expressed as % Relative Luminescence Unit relative to LPS alone ±SEM (n=3), *=p<0.05, **=p<0.01, ***=p<0.001. Graphs display the statistical analysis of the tested compound vs LPS.
as §1, §2
A 2-tailed, assuming unequal variance T-test analysis was performed on three independent experiments for each assay. P-values were considered significant when p<0.05. If p<0.05, then * or $; if p<0.01, then ** or $$ or ##; if p<0.001, then *** or $$$ or ###.
Cells were seeded in 96-well plates and pre-treated with increasing doses of LXA4, analogues or controls for 30 min, followed by 24 h of co-incubation with 50 ng/ml LPS. […] (*=statistical analysis vs LPS; $=statistical analysis vs LXA4)

THP-1 monocytes = system: THP-1 monocytes
Description: Cytotoxicity Prior to functional assay testing, all compounds were screened for any cytotoxic effect, in the presence & absence of LPS, measuring the level of lactate dehydrogenase (LDH) released at A490nm.
The cells were treated as described above and, after 24 h, supernatant was collected and LDH activity assayed.

[4] = 1.7 ng/g i.p. 30 min before and 1 h after zymosan

SMILES: CCCCC[C@@H](O)c1nc(-c2ccccc2)n(-c2ccccc2)c1/C=C/[C@@H](O)[C@@H](O)CCCC(=O)OC [(1R)-9, Methyl (5S,6R,E)-5,6-dihydroxy-8-(4-((R)-1-hydroxyhexyl)-1,2-diphenyl-1H-imidazol-5-yl)oct-7-enoate]
NFkB-driven luciferase activity in resting conditions (in words) (NFkB [1]): do not elicit
PMN numbers [2, 4]: 44 % maximum response
effect on LPS-induced Th1 cytokine release (in words) (Th1 cytokine release): reduce
effect on LPS-induced NFkB-driven luciferase activity (in words) (NFkB [3]): attenuating

SMILES: CCCCC[C@@H](O)c1ccccc1/C=C/[C@@H](O)[C@@H](O)CCCC(=O)OC [Blx]
effect on LPS-induced LDH activity (cytotoxicity, in words) (THP-1 monocytes): significantly (p<0.001) decreased

SMILES: C[C@@H]1C[C@H]2[C@@H]3CCC4=CC(=O)C=C[C@]4(C)[C@@]3(F)[C@@H](O)C[C@]2(C)[C@@]1(O)C(=O)CO [Dexamethasone]
effect on LPS-induced LDH activity (cytotoxicity, in words) (THP-1 monocytes; human, 24 h): significantly (p<0.001) increased

SMILES: CCCCC[C@H](O)/C=C/C=C\C=C\C=C\[C@@H](O)[C@@H](O)CCCC(=O)O [LXA4, Lipoxin A4, reference compound]
PMN numbers ([2]; 5 ng/g i.p. 30 min before and 1 h after zymosan): 35 % maximum response
reduction of LPS-induced NFkB luciferase activity (NFkB [3]; 100 nM): 24±1.1%
concentration at which maximal inhibition of LPS-induced NFkB activity is reached (NFkB [3]): 100 nM

Second part, led by results:

effect on LPS-induced NFkB-driven luciferase activity (in words) (NFkB [3]): attenuates
potency in reducing LPS-induced NFkB activity, comparison in words (NFkB [3]): not significantly different from LXA4
SMILES: CCCCCCC[C@@H](O)c1nc2ccccc2nc1/C=C/[C@@H](O)[C@@H](O)CCCC(=O)OC [(1R)-CT4-63, Methyl (5S,6R,E)-5,6-dihydroxy-8-(3-((R)-1-hydroxyoctyl)quinoxalin-2-yl)oct-7-enoate]
reduction of LPS-induced NFkB luciferase activity (NFkB [3]; 1 nM): 22.8±7.4%
concentration at which maximal inhibition of LPS-induced NFkB activity is reached (NFkB [3]): 1 nM

effect on LPS-induced NFkB-driven luciferase activity (in words) (NFkB [3]): attenuates
SMILES: CCC[C@@H](O)c1nc2ccccc2nc1/C=C/[C@@H](O)[C@@H](O)CCCC(=O)OC [(1R)-CT4-68, Methyl (5S,6R,E)-5,6-dihydroxy-8-(3-((R)-1-hydroxybutyl)quinoxalin-2-yl)oct-7-enoate]
reduction of LPS-induced NFkB luciferase activity (NFkB [3]; 1 uM): 28.9±6.6%

NFkB-driven luciferase activity in resting conditions (in words) (NFkB [1]): did not elicit
effect on LPS-induced NFkB-driven luciferase activity (in words) (NFkB [3]): attenuates
potency in reducing LPS-induced NFkB activity, comparison in words (NFkB [3]): most potent
SMILES: CCCCC[C@@H](O)c1nc(/C=C/[C@@H](O)[C@@H](O)CCCC(=O)OC)cc2ccccc12 [(1R)-DM-163-RB3]
effect on LPS-induced Th1 cytokine release (in words) (Th1 cytokine release): inhibit
reduction of LPS-induced NFkB luciferase activity (NFkB [3]; 10 nM): 35.4±6.1%
reduction of LPS-induced NFkB luciferase activity (NFkB [3]; 100 nM): 37.9±9.7%

NFkB-driven luciferase activity in resting conditions (in words) (NFkB [1]): do not elicit
effect on LPS-induced NFkB-driven luciferase activity (in words) (NFkB [3]): attenuating
SMILES: CCCCC[C@H](O)c1nc(-c2ccccc2)n(-c2ccccc2)c1/C=C/[C@@H](O)[C@@H](O)CCCC(=O)OC [(1S)-9, Methyl (5S,6R,E)-5,6-dihydroxy-8-(4-((S)-1-hydroxyhexyl)-1,2-diphenyl-1H-imidazol-5-yl)oct-7-enoate]
PMN numbers [2, 4]: 20 % maximum response
effect on LPS-induced Th1 cytokine release (in words) (Th1 cytokine release): reduce

effect on LPS-induced NFkB-driven luciferase activity (in words) (NFkB [3]): attenuates
SMILES: CCCCC[C@@H](O)c1ncc(/C=C/[C@@H](O)[C@@H]2CCCC(=O)O2)c2ccccc12 [(1S)-DM-178-SB4, (S)-6-((R,E)-1-Hydroxy-3-(1-((R)-1-hydroxyhexyl)isoquinolin-4-yl)allyl)tetrahydro-2H-pyran-2-one]
reduction of LPS-induced NFkB luciferase activity (NFkB [3]; 1 uM): 26.8±8.7%

NFkB-driven luciferase activity in resting conditions (in words) (NFkB [1]): did not induce
NFkB-driven luciferase activity in resting conditions (in words) (NFkB [1]; listed as KG5-22): does not elicit
effect on LPS-induced NFkB-driven luciferase activity (in words) (NFkB [3]): attenuating
SMILES: CCCCC[C@@H](O)c1c(/C=C/[C@@H](O)[C@@H](O)CCCC(=O)OC)nc(C)n1C [KG-5-22, (5S,6R,E)-methyl 5,6-dihydroxy-8-(5-((R)-1-hydroxyhexyl)-1,2-dimethyl-1H-imidazol-4-yl)oct-7-enoate]
reduction of LPS-induced NFkB luciferase activity (NFkB [3]; 1 pM): 43.7±8.9%
reduction of LPS-induced NFkB luciferase activity (NFkB [3]; 10 pM): 41.3±9.0%
